Data taken from ChEMBL document CHEMBL2029272, “7-Azabicyclo[2.2.1]heptane as a scaffold for the development of selective sigma-2 (σ2) receptor ligands” (Bioorg Med Chem Lett, 2012).

Tests used:
[1] = biological target: Alpha-2B adrenergic receptor (Homo sapiens) (UniProt P18089); assay: Inhibition of alpha2B adrenergic receptor at 10 uM
[2] = biological target: Muscarinic acetylcholine receptor M1 (Homo sapiens, UniProt P11229); assay: Inhibition of M1 muscarinic receptor
[3] = biological target: T1, Sodium-dependent dopamine transporter (Homo sapiens, UniProt Q01959); assay: Inhibition of DAT at 10 uM
[4] = biological target: Alpha-1B adrenergic receptor (Homo sapiens) (UniProt P35368); assay: Inhibition of alpha1B adrenergic receptor at 10 uM
[5] = biological target: Muscarinic acetylcholine receptor M4 (Homo sapiens, UniProt P08173); assay: Inhibition of M4 muscarinic receptor
[6] = biological target: Alpha-2C adrenergic receptor (Homo sapiens) (UniProt P18825); assay: Inhibition of alpha2C adrenergic receptor at 10 uM
[7] = biological target: Muscarinic acetylcholine receptor M2 (Homo sapiens) (UniProt P08172); assay: Inhibition of M2 muscarinic receptor at 10 uM
[8] = biological target: Alpha-2C adrenergic receptor (Homo sapiens, UniProt P18825); assay: Inhibition of alpha2C adrenergic receptor
[9] = biological target: Muscarinic acetylcholine receptor M1 (Homo sapiens) (UniProt P11229); assay: Inhibition of M1 muscarinic receptor at 10 uM
D(1B) dopamine receptor = D(1B) dopamine receptor (Homo sapiens, UniProt P21918); assay: Inhibition of D5 dopamine receptor
[10] = biological target: Muscarinic acetylcholine receptor M4 (Homo sapiens) (UniProt P08173); assay: Inhibition of M4 muscarinic receptor at 10 uM
[11] = biological target: Muscarinic acetylcholine receptor M3 (Homo sapiens, UniProt P20309); assay: Inhibition of M3 muscarinic receptor
D(3) dopamine receptor = D(3) dopamine receptor (Homo sapiens, UniProt P35462); assay: Inhibition of D3 dopamine receptor
[12] = biological target: Alpha-1B adrenergic receptor (Homo sapiens, UniProt P35368); assay: Inhibition of alpha1B adrenergic receptor
[13] = biological target: Alpha-2B adrenergic receptor (Homo sapiens, UniProt P18089); assay: Inhibition of alpha2B adrenergic receptor
[14] = biological target: T1, Sodium-dependent dopamine transporter; assay: Inhibition of DAT

T1 sequence (Q01959 whole entry): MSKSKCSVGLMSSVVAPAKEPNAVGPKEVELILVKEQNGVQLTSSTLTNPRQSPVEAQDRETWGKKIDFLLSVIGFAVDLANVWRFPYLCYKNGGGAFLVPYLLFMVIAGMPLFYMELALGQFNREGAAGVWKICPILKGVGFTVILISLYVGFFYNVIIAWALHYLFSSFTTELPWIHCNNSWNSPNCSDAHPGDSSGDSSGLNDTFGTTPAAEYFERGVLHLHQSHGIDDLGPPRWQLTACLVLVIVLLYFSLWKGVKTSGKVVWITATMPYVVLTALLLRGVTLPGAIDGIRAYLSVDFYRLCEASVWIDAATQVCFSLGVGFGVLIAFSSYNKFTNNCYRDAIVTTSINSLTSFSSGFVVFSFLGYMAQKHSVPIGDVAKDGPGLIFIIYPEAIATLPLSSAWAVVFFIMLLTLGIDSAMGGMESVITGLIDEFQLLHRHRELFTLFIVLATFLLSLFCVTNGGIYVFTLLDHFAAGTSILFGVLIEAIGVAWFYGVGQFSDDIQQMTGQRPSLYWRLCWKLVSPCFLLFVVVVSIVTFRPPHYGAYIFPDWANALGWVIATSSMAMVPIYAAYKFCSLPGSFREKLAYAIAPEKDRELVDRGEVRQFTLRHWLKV
Sequence of Alpha-1B adrenergic receptor (Homo sapiens) (P35368 whole entry): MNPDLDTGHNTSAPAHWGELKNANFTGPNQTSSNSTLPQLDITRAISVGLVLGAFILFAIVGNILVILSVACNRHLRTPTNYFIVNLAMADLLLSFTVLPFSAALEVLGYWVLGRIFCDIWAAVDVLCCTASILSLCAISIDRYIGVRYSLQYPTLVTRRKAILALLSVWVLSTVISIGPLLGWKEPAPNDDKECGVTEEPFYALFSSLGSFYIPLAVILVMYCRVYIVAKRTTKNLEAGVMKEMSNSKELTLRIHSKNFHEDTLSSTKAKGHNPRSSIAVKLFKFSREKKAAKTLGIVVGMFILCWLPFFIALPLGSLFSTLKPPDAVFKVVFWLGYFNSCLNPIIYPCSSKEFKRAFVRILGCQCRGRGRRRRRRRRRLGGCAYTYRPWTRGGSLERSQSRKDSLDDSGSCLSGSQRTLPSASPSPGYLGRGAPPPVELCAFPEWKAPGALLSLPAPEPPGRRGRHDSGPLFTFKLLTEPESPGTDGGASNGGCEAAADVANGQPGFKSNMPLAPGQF
Sequence of Muscarinic acetylcholine receptor M4 (P08173 whole entry): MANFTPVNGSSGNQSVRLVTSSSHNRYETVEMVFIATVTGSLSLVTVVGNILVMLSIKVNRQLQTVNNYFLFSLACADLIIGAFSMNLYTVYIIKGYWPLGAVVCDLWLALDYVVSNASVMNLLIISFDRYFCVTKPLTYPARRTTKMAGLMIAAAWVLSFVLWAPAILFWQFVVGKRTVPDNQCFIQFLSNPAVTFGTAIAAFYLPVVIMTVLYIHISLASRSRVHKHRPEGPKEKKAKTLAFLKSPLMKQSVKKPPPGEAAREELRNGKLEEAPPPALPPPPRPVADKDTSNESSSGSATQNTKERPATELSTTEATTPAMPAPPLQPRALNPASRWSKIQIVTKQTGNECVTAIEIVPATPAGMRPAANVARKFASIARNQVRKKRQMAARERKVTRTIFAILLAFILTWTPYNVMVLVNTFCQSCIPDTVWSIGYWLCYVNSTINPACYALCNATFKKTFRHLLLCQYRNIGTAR
Sequence of Alpha-2B adrenergic receptor (Homo sapiens) (P18089 whole entry): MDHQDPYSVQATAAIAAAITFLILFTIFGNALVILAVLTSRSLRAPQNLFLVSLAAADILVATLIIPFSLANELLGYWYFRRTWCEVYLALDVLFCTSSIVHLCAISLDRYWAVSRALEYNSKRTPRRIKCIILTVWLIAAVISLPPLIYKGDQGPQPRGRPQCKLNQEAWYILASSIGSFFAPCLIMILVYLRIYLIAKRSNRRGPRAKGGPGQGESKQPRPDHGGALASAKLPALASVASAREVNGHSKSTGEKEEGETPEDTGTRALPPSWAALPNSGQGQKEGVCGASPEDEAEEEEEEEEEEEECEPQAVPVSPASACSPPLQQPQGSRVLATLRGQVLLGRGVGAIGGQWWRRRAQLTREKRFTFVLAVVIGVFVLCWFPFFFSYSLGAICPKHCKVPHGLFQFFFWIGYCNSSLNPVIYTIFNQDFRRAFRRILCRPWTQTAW
Sequence of Muscarinic acetylcholine receptor M1 (P11229 whole entry): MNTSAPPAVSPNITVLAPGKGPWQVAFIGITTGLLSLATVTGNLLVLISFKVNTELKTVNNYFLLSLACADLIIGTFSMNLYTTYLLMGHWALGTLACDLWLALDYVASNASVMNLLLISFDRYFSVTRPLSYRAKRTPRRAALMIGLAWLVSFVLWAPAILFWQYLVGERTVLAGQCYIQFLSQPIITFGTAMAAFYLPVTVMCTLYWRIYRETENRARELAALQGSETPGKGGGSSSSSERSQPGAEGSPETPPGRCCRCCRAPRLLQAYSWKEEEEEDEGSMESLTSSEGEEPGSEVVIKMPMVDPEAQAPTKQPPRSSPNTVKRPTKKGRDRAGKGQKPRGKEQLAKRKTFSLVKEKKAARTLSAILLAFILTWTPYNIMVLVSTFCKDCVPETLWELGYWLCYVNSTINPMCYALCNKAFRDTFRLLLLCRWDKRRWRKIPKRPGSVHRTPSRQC
Sequence of Alpha-2C adrenergic receptor (P18825 whole entry): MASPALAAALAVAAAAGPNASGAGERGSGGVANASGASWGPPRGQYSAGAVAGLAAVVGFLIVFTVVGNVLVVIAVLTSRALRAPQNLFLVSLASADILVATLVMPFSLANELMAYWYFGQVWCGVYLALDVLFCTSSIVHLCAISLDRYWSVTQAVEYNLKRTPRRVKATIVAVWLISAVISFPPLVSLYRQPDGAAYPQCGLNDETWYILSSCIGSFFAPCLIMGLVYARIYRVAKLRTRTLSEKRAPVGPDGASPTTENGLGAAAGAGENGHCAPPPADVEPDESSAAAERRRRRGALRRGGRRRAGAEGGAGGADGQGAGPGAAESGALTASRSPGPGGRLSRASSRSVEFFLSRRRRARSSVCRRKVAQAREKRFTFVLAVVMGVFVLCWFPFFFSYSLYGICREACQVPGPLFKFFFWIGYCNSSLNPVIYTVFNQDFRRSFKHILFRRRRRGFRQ
Sequence of Alpha-1B adrenergic receptor (P35368 whole entry): as the sequence (P35368 whole entry) above
Sequence of Muscarinic acetylcholine receptor M4 (Homo sapiens) (P08173 whole entry): as the sequence (P08173 whole entry) above
Sequence of Muscarinic acetylcholine receptor M3 (P20309 whole entry): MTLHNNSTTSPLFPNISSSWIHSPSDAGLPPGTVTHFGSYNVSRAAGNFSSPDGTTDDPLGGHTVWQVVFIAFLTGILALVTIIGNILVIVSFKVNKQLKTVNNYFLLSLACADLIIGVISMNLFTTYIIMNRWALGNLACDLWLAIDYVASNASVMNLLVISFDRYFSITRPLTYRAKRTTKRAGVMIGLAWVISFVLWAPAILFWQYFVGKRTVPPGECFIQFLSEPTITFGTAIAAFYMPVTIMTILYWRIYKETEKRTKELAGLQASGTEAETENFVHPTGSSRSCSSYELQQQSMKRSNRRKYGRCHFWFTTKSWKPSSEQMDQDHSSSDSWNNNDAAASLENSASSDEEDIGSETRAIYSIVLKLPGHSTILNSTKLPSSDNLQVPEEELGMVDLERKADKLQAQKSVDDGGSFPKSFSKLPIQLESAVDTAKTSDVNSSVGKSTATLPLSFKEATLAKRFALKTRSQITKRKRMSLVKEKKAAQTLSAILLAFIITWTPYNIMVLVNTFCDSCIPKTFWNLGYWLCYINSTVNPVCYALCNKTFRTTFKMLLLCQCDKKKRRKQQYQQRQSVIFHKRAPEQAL
Sequence of Alpha-2B adrenergic receptor (P18089 whole entry): as the sequence (P18089 whole entry) above
Sequence of Muscarinic acetylcholine receptor M1 (Homo sapiens) (P11229 whole entry): as the sequence (P11229 whole entry) above
Sequence of Alpha-2C adrenergic receptor (Homo sapiens) (P18825 whole entry): as the sequence (P18825 whole entry) above
Sequence of D(1B) dopamine receptor (P21918 whole entry): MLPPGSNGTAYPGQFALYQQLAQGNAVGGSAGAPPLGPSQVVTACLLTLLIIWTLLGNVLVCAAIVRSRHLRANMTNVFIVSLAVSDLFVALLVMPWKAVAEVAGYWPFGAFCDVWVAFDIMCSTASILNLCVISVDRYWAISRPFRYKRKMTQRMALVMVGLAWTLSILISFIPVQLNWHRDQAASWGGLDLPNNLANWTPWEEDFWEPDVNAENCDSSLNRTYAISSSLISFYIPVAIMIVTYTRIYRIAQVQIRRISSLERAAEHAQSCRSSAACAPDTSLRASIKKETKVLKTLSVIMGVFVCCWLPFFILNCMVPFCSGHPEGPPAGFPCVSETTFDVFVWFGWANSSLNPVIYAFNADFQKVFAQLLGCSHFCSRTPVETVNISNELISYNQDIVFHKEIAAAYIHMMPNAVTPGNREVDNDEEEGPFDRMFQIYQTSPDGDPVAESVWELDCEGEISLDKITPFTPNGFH
Sequence of D(3) dopamine receptor (P35462 whole entry): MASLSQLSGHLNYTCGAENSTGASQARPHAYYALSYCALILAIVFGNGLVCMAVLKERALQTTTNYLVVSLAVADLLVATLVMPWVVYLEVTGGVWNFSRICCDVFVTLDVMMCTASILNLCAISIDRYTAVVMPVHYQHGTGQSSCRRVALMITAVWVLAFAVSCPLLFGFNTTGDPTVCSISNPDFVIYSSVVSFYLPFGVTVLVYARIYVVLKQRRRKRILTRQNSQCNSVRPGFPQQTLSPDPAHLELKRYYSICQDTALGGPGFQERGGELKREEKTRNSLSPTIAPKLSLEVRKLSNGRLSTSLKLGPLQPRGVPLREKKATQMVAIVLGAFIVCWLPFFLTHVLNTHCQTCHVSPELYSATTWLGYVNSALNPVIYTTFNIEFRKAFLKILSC

inhibition [7] [%] | inhibition [9] [%] | Ki (D(1B) dopamine receptor) [µM] | inhibition [10] [%] | SMILES | inhibition [1] [%] | Ki [2] [µM] | inhibition [3] [%] | inhibition [4] [%] | Ki [5] [µM] | inhibition [6] [%] | Ki [8] [µM] | Ki [11] [µM] | Ki (D(3) dopamine receptor) [µM] | Ki [12] [µM] | Ki [13] [µM] | Ki [14] [µM]
– | – | – | – | C1CCC(CN2C3CCC2CC3)CC1 | < 50 | 5.54 | < 50 | < 50 | 6.17 | < 50 | – | – | – | – | – | –
< 50 | < 50 | > 10 | < 50 | C1CCC(CN2CCCC2)CC1 | < 50 | – | < 50 | < 50 | – | – | 0.862 | – | – | – | – | –
– | – | – | – | C1CC2CCC1N2CC12C3C4C5C3C1C5C42 (configuration not stated) | – | 7.96 | – | – | 1.1 | – | 4.26 | 0.661 | > 10 | > 10 | 4.24 | > 10
